Experimental data taken from patent publication US20220174947A1, “ANTIMICROBIAL MIXTURE CONTAINING 4-(3-ETHOXY-4-HYDROXYPHENYL)BUTAN-2-ONE AND AN ALCOHOL COMPOUND, AND COSMETIC COMPOSITION CONTAINING SAME” (L'OREAL, priority 2018, published 2022).

Columns and labels:
[1] = tested on: Enterococcus faecalis ATCC 33186; experiment: Synergistic antimicrobial activity as MIC, 96-well microplate, optical density at 620 nm; format: cell-based; details: for % MIC of A alone: Enterococcus faecalis, growth <= 25%
Source text: FIC Index=(MIC of A with B/MIC of A)+(MIC of B with A/MIC of B [Math. 1]
with: • MIC of A with B: minimum concentration of product A in the combination A+B which makes it possible to obtain an inhibitory effect; • MIC of B with A: minimum concentration of product B in the combination A+B which makes it possible to obtain an inhibitory effect; • MIC of A: minimum inhibitory concentration of product A alone; • MIC of B: minimum inhibitory concentration of product B alone. This formula was described for the first time in the article by F. C. Kull, P. C. Eisman, H. D. Sylwestrowka, and R. L. Mayer, Applied Microbiology 9:538-541, 1961.
The microbial strain Enterococcus faecalis ATCC 33186 and a double-concentration BHI (Brain Heart Infusion) broth liquid culture medium were used.
A 96-well microplate at an incubation temperature of 32.5° C. is used.
The incubation time of the microplate is: • from 24 to 30 h under aerobic conditions for microbial Aspergillus niger ATCC 6275; • from 18 to 24 h under aerobic conditions for Candida albicans ATCC 10231, Pseudomonas aeruginosa ATCC 9027 and Staphylococcus aureus ATCC 6538; • from 24 to 48 h under aerobic conditions for Enterococcus faecalis ATCC 33186.
For each compound: A=4-(3-ethoxy-4-hydroxyphenyl) butan-2-one compound B=alcohol compound A 10% (weight/volume) stock solution was prepared by mixing 1 g of compound in 9 ml of aqueous 1% agar solution. Successive dilutions were made with the 1% agar solution.
50 μl of each of the daughter solutions obtained containing compound A or B are added to the microplate wells. 100 μl of Sabouraud liquid nutrient broth inoculated at double concentration with the Aspergillus niger strain and 50 μl of aqueous 1% agar solution are also added thereto.
50 μl of each of the daughter solutions obtained containing compound A and 50 μl of each of the daughter solutions obtained containing compound B are added to the microplate wells. 100 μl of Sabouraud liquid nutrient broth inoculated at double concentration with the strain Aspergillus niger are also added thereto.
A positive microbial growth control was also prepared. The positive microbial growth control corresponds to a mixture of 100 μl of aqueous 1% agar solution with 100 μl of Sabouraud liquid nutrient broth inoculated at double concentration with the strain Aspergillus niger in the absence of compounds A and B.
An absorbance control was performed in parallel on compounds A and B alone. This control corresponds to 100 μl of double concentration sterile Sabouraud liquid nutrient broth+100 μl of double concentration compound A or B.
In the three cases (absorbance control, growth control and test), the final volume present in each of the microplate wells is 200 μl.
The test as described above (tests, absorbance control and growth control) was performed again to test the combination A+B on the following strains Enterococcus faecalis, Staphylococcus aureus, Pseudomonas aeruginosa, Candida albicans, where appropriate.

[2] = tested on: Pseudomonas aeruginosa ATCC 9027; experiment: as above; format: cell-based; details: for % MIC of A alone: Pseudomonas aeruginosa, growth <= 25%
Source text: with: • MIC of A with B: minimum concentration of product A in the combination A+B which makes it possible to obtain an inhibitory effect; • MIC of B with A: minimum concentration of product B in the combination A+B which makes it possible to obtain an inhibitory effect; • MIC of A: minimum inhibitory concentration of product A alone; • MIC of B: minimum inhibitory concentration of product B alone. This formula was described for the first time in the article by F. C. Kull, […], and R. L. Mayer, Applied Microbiology 9:538-541, 1961. […] When the FIC index value is less than or equal to 1, it is considered that the combination of test compounds has a synergistic effect. The microbial strain Pseudomonas aeruginosa ATCC 9027 and a double-concentration nutrient broth liquid culture medium were used. A 96-well microplate at an incubation temperature of 32.5° C. is used. […] For each compound: […] 50 μl of each of the daughter solutions obtained containing compound A and 50 μl of each of the daughter solutions obtained containing compound B are added to the microplate wells. 100 μl of Sabouraud liquid nutrient broth inoculated at double concentration with the strain Aspergillus niger are also added thereto. A positive microbial growth control was also prepared. […] An absorbance control was performed in parallel on compounds A and B alone. This control corresponds to 100 μl of double concentration sterile Sabouraud liquid nutrient broth+100 μl of double concentration compound A or B. […] The test as described above (tests, absorbance control and growth control) was performed again to test the combination A+B on the following strains Enterococcus faecalis, Staphylococcus aureus, Pseudomonas aeruginosa, Candida albicans, where appropriate.

## CCOc1cc(CCC(C)=O)ccc1O [A, 4-(3-ethoxy-4-hydroxyphenyl)butan-2-one]
[1]; 0.0625 A, 0 B3 weight %
  microbial growth percentage: 70%
[1]; 0.0625 A, 0 B4 weight %
  microbial growth percentage: 44%
[1]; 0.0625 A, 0 B6 weight %
  microbial growth percentage: 35%
[1]; 0.125 A, 0 B3 weight %
  microbial growth percentage: 31%
[1]; 0.125 A, 0 B4 weight %
  microbial growth percentage: 39%
[1]; 0.125 A, 0 B6 weight %
  microbial growth percentage: 43%
[1]; 0.25 A, 0 B3 weight %
  microbial growth percentage: 27%
[1]; 0.25 A, 0 B4 weight %
  microbial growth percentage: 38%
[1]; 0.25 A, 0 B6 weight %
  microbial growth percentage: 34%
[1]; 0.5 A, 0 B3 weight %
  microbial growth percentage: 14%
[1]; 0.5 A, 0 B4 weight %
  microbial growth percentage: 12%
[1]; 0.5 A, 0 B6 weight %
  microbial growth percentage: 0%
[1]; Example 3
  % MIC of A alone: 0.5%
[1]; Example 4
  % MIC of A alone: 0.5%
[1]; Example 6
  % MIC of A alone: 0.5%
[2]; 0.0625 A, 0 B4 weight %
  microbial growth percentage: 63%
[2]; 0.0625 A, 0 B6 weight %
  microbial growth percentage: 80%
[2]; 0.125 A, 0 B4 weight %
  microbial growth percentage: 60%
[2]; 0.125 A, 0 B6 weight %
  microbial growth percentage: 63%
[2]; 0.25 A, 0 B4 weight %
  microbial growth percentage: 64%
[2]; 0.25 A, 0 B6 weight %
  microbial growth percentage: 56%
[2]; 0.5 A, 0 B4 weight %
  microbial growth percentage: 62%
[2]; 0.5 A, 0 B6 weight %
  microbial growth percentage: 61%
[2]; 1 A, 0 B4 weight %
  microbial growth percentage: 7%
[2]; 1 A, 0 B6 weight %
  microbial growth percentage: −17%
[2]; Example 4
  % MIC of A alone: 1%
[2]; Example 6
  % MIC of A alone: 1%
